Source: patent US9695179B2, “Methods and compositions for inhibition of bromodomain-containing proteins” (CONVERGENE LLC, priority 2013, dated 2017)

Columns and labels:
[1] = target: human BRD4 protein (Homo sapiens (Human), UniProt O60885); assay: AlphaScreen assay, BRD4 (bromodomain 1 and 2) with histone H4 peptide; format: binding; details: for IC50: 25 nM BRD4, histone H4 peptide, 8 concentrations (10 nM-10 μM), read-out: BRD4-BD1-BD2 IC50; for BRD4-BD1-BD2 % Inhibition: test compounds assayed at 10 μM or 31.6 μM for screening
Method: The interactions between test compounds and BRD4 protein containing both bromodomain 1 and bromodomain 2 were measured with human BRD4 protein with N-terminal His tag (BPS Bioscience, San Diego, Calif.) using AlphaScreen® assay at room temperature. A 9 μl reaction mixture in BRD Assay Buffer (BPS Bioscience) containing 25 nM BRD4 and test compounds at various concentrations were incubated for 30 minutes followed by additional 30-minute incubation with 1 μl of 20 μM histone H4 peptide (residue 1-21) in the presence of 5% DMSO. Test compounds (see Table 4) were assayed at 10 μM or 31.6 μM for screening purpose, while 8 different concentrations (10 nM-10 μM) were used for IC50 measurements. After the incubation, 20 μl of BRD Detection Buffer (BPS Bioscience) containing 10 μg/ml Glutathione Acceptor beads and 10 μg/ml Streptavidin Donor beads (PerkinElmer, Waltham, Mass.) was added and the mixture was incubated for 50 minutes in darkroom. Binding measurements were taken in duplicate at each concentration using EnSpire® Alpha Multimode Plate Reader Model 2390 (PerkinElmer). The AlphaScreen data were analyzed using Graphpad Prism (La Jolla, Calif.). In the absence of the compound, the AlphaScreen signal (At) in each data set was defined as 100% activity. In the absence of the histone H4 peptide ligand, the AlphaScreen signal (Ab) in each data set was defined as 0% activity. The percent activity in the presence of each compound was calculated according to the following equation: % activity=[(A−Ab)/(At−Ab)]×100, where A=the AlphaScreen signal in the presence of compound; Ab=the AlphaScreen signal in the absence of the histone peptide ligand; and At=the AlphaScreen signal in the absence of the compound. The percent inhibition was calculated according to the following equation: % inhibition=100−% activity.

[2] = system: MV4-11 acute myeloid leukemia cells; assay: In vitro cell viability (AlamarBlue), MV4-11; format: cell-based; details: Homo sapiens, MV4-11 cells, 72-hour incubation, read-out: In Vitro Cell Viability (IC50) MV4-11 Cells (AML)
Method: MV4-11 acute myeloid leukemia cells (American Type Culture Collection, Manassas, Va.) were added to 96-well clear bottom assay plates containing RPMI-1640 medium supplemented with 10% fetal bovine serum (FBS) at approximately 30,000 cells/well and incubated for 24 hours at 37° C. with 5% CO2 and 95% humidity. Control wells containing no cells were included to measure background fluorescence signal. Test compounds were dissolved at […] and diluted two-fold in DMSO to produce a working stock of compound solutions. Aliquots of the working stock solutions were subsequently diluted 100-fold in basal RPMI-1640 medium which was then further diluted 10-fold to the assay plate containing the cells to provide 10 test concentrations ranging from 0.04 μM-20 μM. Following a 72-hour incubation period, viability of the cells was determined by the AlamarBlue® assay (Life Technologies, Carlsbad, Calif.) following the manufacturer's protocol. Prior to generation of dose response curves, the data were background subtracted using the no cell control values (mean+/−standard deviation) and fluorescence values versus Log10 concentration of test compounds were plotted using GraphPad Prism. The resulting sigmoidal curve was then fit to the graph and IC50 values were calculated using a 4 parameter (4PL) algorithm using the following equation: 4(PL)F(x)=(A−D)/(1+(x/c)^B+D, where A=lower asymptote (baseline response), D=upper asymptote (maximum response), C=drug concentration that provokes a response halfway between A and D, B=slope of the curve. The results for selected compounds are set forth in Table 7.

[3] = target: BRD4-BD1-BD2 (Homo sapiens (Human), UniProt O60885); assay: AlphaScreening assay, recombinant BRD4-BD1-BD2 and BET Ligand; format: binding; details: 2.5 nM BRD4-BD1-BD2, BET Ligand
Method: Assays were performed by AlphaScreening technology using a recombinant BRD4-BD1-BD2 and BET Ligand. The AlphaScreening signal from the assay was correlated with the amount of BET Ligand binding to the bromodomain. The compounds were diluted in 50% DMSO and 1 μl of the dilution was added to a 10 μl reaction so that the final concentration of DMSO is 5% in all of reactions. All reactions were conducted at room temperature. The 9 μl reaction mixture in BRD Assay Buffer contains 2.5 nM BRD4-BD1-BD2 and the indicated amount of the inhibitor, and the reaction mixture were incubated for 30 min followed by additional 30 min incubation after the addition of 1 μl of BET Ligand (Table 2.3.1). For the negative control (blank), 1 μl of the assay buffer was added instead of the BET Ligand. After the 30 min incubation with the BET Ligand, 20 μl of BRD Detection buffer containing 10 μg/ml Glutathione acceptor beads and 10 μg/ml Streptavidin Donor beads was added and the final 30 μl mixture was incubated for 50 min in a dark room.
AlphaScreening signal was measured using EnSpire Alpha 2390 Multilabel reader (Perkin Elmer). Binding experiments were performed in duplicate at each concentration. The AlphaScreening data were analyzed using the computer software, Graphpad Prism. In the absence of the compound, the AlphaScreening signal (At) in each data set was defined as 100% activity. In the absence of the BET Ligand, the AlphaScreening signal (Ab) in each data set was defined as 0% activity. The percent activity in the presence of each compound was calculated according to the following equation: % activity=[(A−Ab)/(At−Ab)]×100, where A=the AlphaScreening signal in the presence of the compound, Ab=the AlphaScreening signal in the absence of the BET Ligand, and At=the AlphaScreening signal in the absence of the compound. The percent inhibition was calculated for certain compounds according to the following equation: % inhibition=100−% activity.

IC50 [1] [nM] | BRD4-BD1-BD2 % Inhibition [1] [%] | IC50 [2] [nM] | inhibition at 10 µM [3] [%] | Structure (SMILES)
864 | 98 |  |  | COc1ccc(Cn2c(=O)c(-c3coc(C)n3)c(OS(=O)(=O)c3cccc4cccnc34)c3cc(Cl)ccc32)cc1 [Compound 88]
 |  | 400 |  | Cc1cncc(F)c1/C=C/C(=O)c1c(-c2cccnc2)c2cc(Cl)ccc2[nH]c1=O [Compound 16, 6-chloro-3-(3-(3-fluoro-5-methylpyridin-4-yl)acryloyl)-4-(pyridin-3-yl)quinolin-2(1H)-one]
 |  | 1180 |  | O=C(/C=C/c1c(F)cccc1Cl)c1c(-c2ccncc2)c2cc(Cl)ccc2[nH]c1=O [Compound 15, 6-chloro-3-(3-(2-chloro-6-fluorophenyl)acryloyl)-4-(pyridin-4-yl)quinolin-2(1H)-one]
5800 | 59 |  |  | C=CCn1c(Sc2c(-c3ccccc3)c3cc(Cl)ccc3[nH]c2=O)nnc1-c1cccs1 [Compound 97]
670 | 99 |  |  | COc1ccc(Cn2c(=O)c(-c3coc(C)n3)c(OS(=O)(=O)c3ccc(Cl)cc3)c3cc(Cl)ccc32)cc1 [Compound 86]
49 | >90 |  |  | O=c1[nH]c2ccc(Br)cc2c(-c2ccccc2)c1-c1cc(-c2ccccc2)[nH]c(=S)n1 [Compound 144]
 |  | 5450 |  | CCN(CC)CCCNC(=O)C1CCCN(c2c(-c3ccccc3)c3cc(Cl)ccc3[nH]c2=O)C1 (stereo not drawn) [Compound 127]
 |  | 10300 |  | CN(C)c1ccc(/C=C/C(=O)c2c(-c3ccccc3)c3cc(Cl)ccc3[nH]c2=O)cc1 [Compound 8, 6-chloro-3-(3-(4-(dimethylamino)phenyl)acryloyl)-4-phenylquinolin-2(1H)-one]
 |  |  | 62 | Cc1noc(C)c1-c1ccc2[nH]c(=O)c(C(=O)/C=C/c3ccccc3)c(-c3cccnc3)c2c1 [drawing 644]
 |  | 5520 |  | O=C(/C=C/c1ccc2c(c1)OCCO2)c1c(-c2ccccc2)c2cc(Br)ccc2[nH]c1=O [Compound 9, 6-bromo-3-(3-(2,3-dihydrobenzo[b][1,4]dioxin-6-yl)acryloyl)-4-phenylquinolin-2(1H)-one]
 |  |  | 65 | CCN(CC)C(=O)Sc1c(-c2ccccc2)c2cc(OC)c(-c3c(C)noc3C)cc2[nH]c1=O
 |  |  | 74 | Cc1noc(C)c1-c1ccc2c(c1)c(-c1ccccc1)cc(=O)n2Cc1ccccc1
 |  |  | 99 | COc1ccc(Cn2c(=O)c(-c3coc(C)n3)c(OS(=O)(=O)c3ccc4ccccc4c3)c3cc(Cl)ccc32)cc1 [drawing 656]
6700 | 64 |  |  | COc1ccc(-c2cc(=O)[nH]c(Sc3c(-c4ccccc4)c4cc(Cl)ccc4[nH]c3=O)n2)cc1 [Compound 98]
 |  |  | 99 | COc1ccc(Cn2c(=O)c(-c3coc(C)n3)c(OS(=O)(=O)c3ccc(F)cc3)c3cc(Cl)ccc32)cc1 [drawing 654]
586 | 99 |  |  | COc1ccc(Cn2c(=O)c(-c3coc(C)n3)c(OS(=O)(=O)c3ccc(-c4ccccc4)cc3)c3cc(Cl)ccc32)cc1 [Compound 89]
 |  |  | 99 | COc1ccc(Cn2c(=O)c(-c3coc(C)n3)c(OS(=O)(=O)c3ccc(Cl)cc3)c3cc(Cl)ccc32)cc1 [drawing 655]
 | 99 |  |  | COc1ccc(OC)c(NCc2c(OC)ccc3ccccc23)c1 [Compound 143]
139 | 99 |  |  | COc1ccc(Cn2c(=O)c(-c3coc(C)n3)c(OS(=O)(=O)c3ccc4ccccc4c3)c3cc(Cl)ccc32)cc1 [Compound 87]

IC50 [1] [nM] | BRD4-BD1-BD2 % Inhibition [1] [%] | IC50 [2] [nM] | inhibition at 10 µM [3] [%] | Structure (SMILES)
372 | 98 |  |  | COc1ccc(Cn2c(=O)c(-c3coc(C)n3)c(OS(=O)(=O)c3ccccc3)c3cc(Cl)ccc32)cc1 [Compound 84]
7300 | 68 |  |  | O=c1[nH]c2ccc(Cl)cc2c(-c2ccccc2)c1SC(=S)N1CCOCC1 [Compound 121]
16300 | 64 |  |  | CNC(=S)N1N=C(c2c(-c3ccccc3)c3cc(Cl)ccc3[nH]c2=O)CC1c1ccccc1 (stereo not drawn) [Compound 128]
 |  |  | 99 | COc1ccc(Cn2c(=O)c(-c3coc(C)n3)c(OS(=O)(=O)c3ccc(C)cc3)c3cc(Cl)ccc32)cc1 [drawing 653]
 |  | 2300 |  | O=C(/C=C/c1cccs1)c1c(-c2ccccc2)c2cc(Cl)ccc2[nH]c1=O [Compound 7, 6-chloro-4-phenyl-3-(3-(thiophen-2-yl)acryloyl)quinolin-2(1H)-one]
876 | 99 |  |  | COc1ccc(Cn2c(=O)c(-c3coc(C)n3)c(OS(=O)(=O)c3ccc(F)cc3)c3cc(Cl)ccc32)cc1 [Compound 85]
11200 | 62 |  |  | Cc1noc(C)c1-c1ccc2[nH]c(=O)c(C(=O)/C=C/c3ccccc3)c(-c3cccnc3)c2c1 [Compound 90]
 |  | 8600 |  | Cc1nc(-c2c(N3CCCCC3)c3cc(Cl)ccc3[nH]c2=O)co1 [Compound 21]
 |  |  | 98 | COc1ccc(Cn2c(=O)c(-c3coc(C)n3)c(OS(=O)(=O)c3ccccc3)c3cc(Cl)ccc32)cc1 [drawing 651]
442 | 99 |  |  | COc1ccc(Cn2c(=O)c(-c3coc(C)n3)c(OS(=O)(=O)c3ccc(C)cc3)c3cc(Cl)ccc32)cc1 [Compound 83]
26800 | 65 |  |  | CCN(CC)C(=S)Sc1c(-c2ccccc2)c2cc(Cl)ccc2[nH]c1=O [Compound 122]
2430 | 87 | 110 |  | O=C(/C=C/c1ccccc1)c1c(-c2ccccc2)c2cc(Cl)ccc2[nH]c1=O [Compound 1]
 |  | 3000 |  | O=C(/C=C/c1ccccc1)c1c(-c2ccccc2)c2cc(Br)ccc2[nH]c1=O [Compound 81]
 |  | 1800 |  | Cc1nc(-c2c(N3CCCC3)c3cc(Cl)ccc3[nH]c2=O)co1 [Compound 22]
3700 | 92 |  |  | Cc1ccc(-c2nnc(Sc3c(-c4ccccc4)c4cc(Cl)ccc4[nH]c3=O)n2N)cc1 [Compound 132]
23600 | 50 |  |  | CSc1nsc(Sc2c(-c3ccccc3)c3ccc(Cl)cc3[nH]c2=O)n1 [Compound 126]
17300 | 50 |  |  | O=c1[nH]c2cc(Cl)ccc2c(-c2ccccc2)c1Sc1nc2ccccc2s1 [Compound 124]
1440 | 72 |  |  | O=c1[nH]c2ccc(Cl)cc2c(-c2ccccc2)c1-c1cc(-c2ccccc2)[nH]c(=S)n1 [Compound 145]
